# Where “and” joins values, the source holds several entries; their conditions need not be identical. Identical values can stand only once. Where no end group is shown, it is not given here.
# Test system: MVF-PD-L1 peptide immunogen
# Assay: Immunogenicity in Balb/c mice, experiment 1 (CT26 WT): ELISA of sera vs each MVF-PD-L1 peptide immunogen
# Assay type: in vivo
# Conditions: for Immunogenicity (titers) 1′ Conc. 1:: Balb/c mice
# Outline: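 Female Balb/c mice aged 6–8 weeks received 100 μg of each MVF-PD-L1 peptide in Montanide ISA 720 with nor-MDP three times at 3-week intervals. Weekly sera were titered by ELISA against each immunogen on 200 ng/well peptide. Titer was the highest dilution giving absorbance 0.2 after blank subtraction.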
sequence,measurement,setting,value
KLLSLIKGVIVHRLEGVEGPSLYRCMISYGGADYKRITVK (KLLSLIKGVIVHRLEGVEGPSLYRCMISYGGADYKRITVK-NH2) [PD-L1(95)],Immunogenicity (titers) 1′ Conc. 1:,bleed 1Y + 3,0
same,Immunogenicity (titers) 1′ Conc. 1:,bleed 2Y + 1,12800
same,Immunogenicity (titers) 1′ Conc. 1:,bleed 2Y + 2,32000
same,Immunogenicity (titers) 1′ Conc. 1:,bleed 2Y + 3,32000
same,Immunogenicity (titers) 1′ Conc. 1:,bleed 3Y + 1,32000
same,Immunogenicity (titers) 1′ Conc. 1:,bleed 3Y + 2,64000
same,Immunogenicity (titers) 1′ Conc. 1:,bleed 3Y + 3,32000
same,ELISA absorbance of sera,"bleed 1Y + 3 (1to100), dilution 100",0.165 and 0.150
same,ELISA absorbance of sera,"bleed 1Y + 3 (1to100), dilution 200",0.088 and 0.078
same,ELISA absorbance of sera,"bleed 1Y + 3 (1to100), dilution 400",0.040 and 0.036
same,ELISA absorbance of sera,"bleed 1Y + 3 (1to100), dilution 800",0.020 and 0.021
same,ELISA absorbance of sera,"bleed 1Y + 3 (1to100), dilution 1,600",0.008 and 0.007
same,ELISA absorbance of sera,"bleed 1Y + 3 (1to100), dilution 3,200",0.006
same,ELISA absorbance of sera,"bleed 1Y + 3 (1to100), dilution 6,400",0.002 and 0.001
same,ELISA absorbance of sera,"bleed 2Y + 1 (1to100), dilution 100",1.499 and 1.508
same,ELISA absorbance of sera,"bleed 2Y + 1 (1to100), dilution 200",1.399 and 1.429
same,ELISA absorbance of sera,"bleed 2Y + 1 (1to100), dilution 400",1.232 and 1.283
same,ELISA absorbance of sera,"bleed 2Y + 1 (1to100), dilution 800",0.988 and 1.067
same,ELISA absorbance of sera,"bleed 2Y + 1 (1to100), dilution 1,600",0.768 and 0.793
same,ELISA absorbance of sera,"bleed 2Y + 1 (1to100), dilution 3,200",0.508 and 0.560
same,ELISA absorbance of sera,"bleed 2Y + 1 (1to100), dilution 6,400",0.303 and 0.339
same,ELISA absorbance of sera,"bleed 2Y + 1 (1to100), dilution 12,800",0.235 and 0.201
same,ELISA absorbance of sera,"bleed 2Y + 2 (1to1k), dilution row 100 (Table 5C), dilution 100",1.553 and 1.522
same,ELISA absorbance of sera,"bleed 2Y + 2 (1to1k), dilution row 200 (Table 5C), dilution 200",1.327 and 1.281
same,ELISA absorbance of sera,"bleed 2Y + 2 (1to1k), dilution row 400 (Table 5C), dilution 400",1.035 and 0.982
same,ELISA absorbance of sera,"bleed 2Y + 2 (1to1k), dilution row 800 (Table 5C), dilution 800",0.777 and 0.736
same,ELISA absorbance of sera,"bleed 2Y + 2 (1to1k), dilution row 1,600 (Table 5C)",0.502 and 0.525
same,ELISA absorbance of sera,"bleed 2Y + 2 (1to1k), dilution row 3,200 (Table 5C)",0.294 and 0.299
same,ELISA absorbance of sera,"bleed 2Y + 2 (1to1k), dilution row 6,400 (Table 5C)",0.171 and 0.156
same,ELISA absorbance of sera,"bleed 2Y + 2 (1to1k), dilution row 12,800 (Table 5C)",0.085
same,ELISA absorbance of sera,"bleed 2Y + 3 (1to1k), dilution 100",1.256 and 1.224
same,ELISA absorbance of sera,"bleed 2Y + 3 (1to1k), dilution 200",1.126 and 1.121
same,ELISA absorbance of sera,"bleed 2Y + 3 (1to1k), dilution 400",0.933 and 0.900
same,ELISA absorbance of sera,"bleed 2Y + 3 (1to1k), dilution 800",0.714 and 0.699
same,ELISA absorbance of sera,"bleed 2Y + 3 (1to1k), dilution 1,600",0.500 and 0.484
same,ELISA absorbance of sera,"bleed 2Y + 3 (1to1k), dilution 3,200",0.318 and 0.296
same,ELISA absorbance of sera,"bleed 2Y + 3 (1to1k), dilution 6,400",0.150 and 0.154
same,ELISA absorbance of sera,"bleed 3Y + 1 (1to1k), dilution 100",1.597 and 1.466
same,ELISA absorbance of sera,"bleed 3Y + 1 (1to1k), dilution 200",1.387 and 1.308
same,ELISA absorbance of sera,"bleed 3Y + 1 (1to1k), dilution 400",1.090 and 0.994
same,ELISA absorbance of sera,"bleed 3Y + 1 (1to1k), dilution 800",0.859 and 0.753
same,ELISA absorbance of sera,"bleed 3Y + 1 (1to1k), dilution 1,600",0.527 and 0.511
same,ELISA absorbance of sera,"bleed 3Y + 1 (1to1k), dilution 3,200",0.275 and 0.263
same,ELISA absorbance of sera,"bleed 3Y + 1 (1to1k), dilution 6,400",0.154 and 0.081
same,ELISA absorbance of sera,"bleed 3Y + 2 (1to1k), dilution 100",2.076 and 1.906
same,ELISA absorbance of sera,"bleed 3Y + 2 (1to1k), dilution 200",1.803 and 1.701
same,ELISA absorbance of sera,"bleed 3Y + 2 (1to1k), dilution 400",1.417 and 1.293
same,ELISA absorbance of sera,"bleed 3Y + 2 (1to1k), dilution 800",1.116 and 0.979
same,ELISA absorbance of sera,"bleed 3Y + 2 (1to1k), dilution 1,600",0.685 and 0.664
same,ELISA absorbance of sera,"bleed 3Y + 2 (1to1k), dilution 3,200",0.357 and 0.342
same,ELISA absorbance of sera,"bleed 3Y + 2 (1to1k), dilution 6,400",0.201 and 0.205
same,ELISA absorbance of sera,"bleed 3Y + 3 (1to1k), dilution 100",1.811 and 1.973
same,ELISA absorbance of sera,"bleed 3Y + 3 (1to1k), dilution 200",1.616 and 1.713
same,ELISA absorbance of sera,"bleed 3Y + 3 (1to1k), dilution 400",1.228 and 1.346
same,ELISA absorbance of sera,"bleed 3Y + 3 (1to1k), dilution 800",0.930 and 1.061
same,ELISA absorbance of sera,"bleed 3Y + 3 (1to1k), dilution 1,600",0.631 and 0.651
same,ELISA absorbance of sera,"bleed 3Y + 3 (1to1k), dilution 3,200",0.230 and 0.244
same,ELISA absorbance of sera,"bleed 3Y + 3 (1to1k), dilution 6,400",0.081 and 0.096
